# Results published in patent US20220031668A1, “METHODS OF INHIBITING PROCOLLAGEN-LYSINE, 2-OXOGLUTARATE 5-DIOXYGENASE 2” (University of Kentucky Research Foundation, priority 2020, published 2022).
# Test system: MDA-MB-231 cells
# Test: 3D culture assay of cancer cell invasion
# Assay type: cell-based, human
# Conditions: 10 μM
# Description: 3D culture assay is an established platform to study cancer cell invasion, and the ability of compounds to attenuate such cell invasion (Zhang 2015). […] The MDA-MB-231 cell line is an epithelial, human breast cancer cell line.
# Briefly, to conduct the 3D culture assay, 12-well plates were coated with […], matrigel per well. After incubating the plates at 37° C. for 15 minutes, MDA-MB-231 cells were plated with about 300 cells per well. The plates were allowed to stand for 45 min in the 37° C. incubator to let the cells deposit into the matrigel. The cells were then covered with 10% matrigel, which contained test compounds. […]
row,SMILES,invasive growth of MDA-MB-231 cells in 3D culture
1,CN(C)C(=O)C(CCN1CCC(O)(c2ccc(Cl)cc2)CC1)(c1ccccc1)c1ccccc1 [Loperamide],inhibits invasive growth

# Same assay, conditions: 20 μM, 3D culture for 3 days
row,SMILES,inhibitory activity on breast cancer progression (invasive growth) in 3D culture
1,C[N+](C)(C)CC(O)CC(=O)O (racemic) [DL-Carnitine],inhibitory activity
2,N=C(N)NC(=O)c1nc(Cl)c(N)nc1N [Amiloride],inhibitory activity
3,CN1CCCC(n2nc(Cc3ccc(Cl)cc3)c3ccccc3c2=O)CC1 (stereo not drawn) [Azelastine],inhibitory activity
4,O=C(O)c1cc(O)c(O)c(O)c1 [Gallic acid],inhibitory activity
5,C[N+](C)(C)C[C@H](O)CC(=O)[O-] [L-Carnitine],inhibitory activity
